Where two headings read alike, the source gives them in different places.
How the values were obtained:
Assay type in all cases: in vivo
[1] = test system: tobacco budworm (Heliothis virescens); test: B.1 Tobacco budworm, 96-well microtiter plate diet test with eggs; conditions: for mortality at 2500 ppm: 120 h, egg and larval mortality after 5 days, read-out: mortality in comparison with untreated controls; for mortality at 274 ppm: comparative experiment C.9; for mortality at 100 ppm: comparative experiment C.6
Description: (§1) If not otherwise specified, the test solutions were prepared as follow: The active compound was dissolved at the desired concentration in a mixture of 1:1 (vol:vol) distilled water:acetone. The test solution was prepared on the day of use.
B.1 Tobacco Budworm (Heliothis virescens)
For evaluating control of tobacco budworm (Heliothis virescens) the test unit consisted of 96-well-microtiter plates containing an insect diet and 15-25 H. virescens eggs.
The compounds were formulated using a solution containing 75% v/v water and 25% v/v DMSO. Different concentrations of formulated compounds were sprayed onto the insect diet at 10 μl, using a custom-built micro atomizer, at two replications.
After application, microtiter plates were incubated at about 28±1° C. and about 80±5% relative humidity for 5 days. Egg and larval mortality was then visually assessed.

[2] = test system: boll weevil (Anthonomus grandis); test: B.2 Boll weevil, 96-well microtiter plate diet test with eggs; conditions: for mortality at 2500 ppm: 120 h, egg and larval mortality after 5 days, read-out: mortality in comparison with untreated controls; for mortality at 9.9 ppm: comparative experiment C.9
Description: as §1
B.2 Boll Weevil (Anthonomus grandis)
For evaluating control of boll weevil (Anthonomus grandis) the test unit consisted of 96-well-microtiter plates containing an insect diet and 5-10 A. grandis eggs.
The compounds were formulated using a solution containing 75% v/v water and 25% v/v DMSO. Different concentrations of formulated compounds were sprayed onto the insect diet at 5 μl, using a custom-built micro atomizer, at two replications.
After application, microtiter plates were incubated at about 25±1° C. and about 75±5% relative humidity for 5 days. Egg and larval mortality was then visually assessed.

[3] = test system: Southern armyworm (Spodoptera eridania), 2nd instar larvae; test: B.3 Southern armyworm, 2nd instar larvae, foliar spray on lima bean plants; conditions: 96 h, 4 days after treatment, read-out: mortality in comparison with untreated controls
Description: B.3 Southern Armyworm (Spodoptera eridania), 2nd Instar Larvae
The active compounds were formulated by a Tecan liquid handler in 100% cyclohexanone as a 10,000-ppm solution supplied in tubes. The 10,000-ppm solution was serially diluted in 100% cyclohexanone to make interim solutions. These served as stock solutions for which final dilutions were made by the Tecan in 50% acetone:50% water (v/v) into 10 or 20 ml glass vials. A non-ionic surfactant (Kinetic@) was included in the solution at a volume of 0.01% (v/v). The vials were then inserted into an automated electrostatic sprayer equipped with an atomizing nozzle for application to plants/insects. Lima bean plants (variety Sieva) were grown 2 plants to a pot and selected for treatment at the 1st true leaf stage. Test solutions were sprayed onto the foliage by an auto-mated electrostatic plant sprayer equipped with an atomizing spray nozzle. The plants were dried in the sprayer fume hood and then removed from the sprayer. Each pot was placed into perforated plastic bags with a zip closure. Ten to 11 armyworm larvae were placed into the bag and the bags zipped closed. Test plants were maintained in a growth room at about 25° C. and about 20-40% relative humidity for 4 days, avoiding direct exposure to fluorescent light (14:10 light:dark photoperiod) to prevent trapping of heat inside the bags. Mortality and reduced feeding were assessed 4 days after treatment, compared to untreated control plants.

[4] = test system: yellow fever mosquito (Aedes aegypti); test: whole plant or invertebrate; conditions: for mortality at 80 ppm: comparative experiment C.5, read-out: B.5, 80 ppm (mortality); for mortality at 2500 ppm: 48 h, larval mortality after 2 days, read-out: mortality in comparison with untreated controls
Description: as §1
B.5 Yellow Fever Mosquito (Aedes aegypti)
For evaluating control of yellow fever mosquito (Aedes aegypti) the test unit consisted of 96-well-microtiter plates containing 200 μl of tap water per well and 5-15 freshly hatched A. aegypti larvae.
The active compounds were formulated using a solution containing 75% (v/v) water and 25% (v/v) DMSO. Different concentrations of formulated compounds or mixtures were sprayed onto the insect diet at 2.5 μl, using a custom-built micro atomizer, at two replications.
After application, microtiter plates were incubated at 281° C., 80±5% RH for 2 days. Larval mortality was then visually assessed.

[5] = test system: green peach aphid (Myzus persicae); test: B.6 Green peach aphid, systemic test with artificial diet under membrane
Description: as §1
B.6 Green Peach Aphid (Myzus persicae)
For evaluating control of green peach aphid (Myzus persicae) through systemic means, the test unit consisted of 96-well-microtiter plates containing liquid artificial diet under an artificial membrane.
The compounds were formulated using a solution containing 75% v/v water and 25% v/v DMSO. Different concentrations of formulated compounds were pipetted into the aphid diet, using a custom built pipetter, at two replications.
After application, 5-8 adult aphids were placed on the artificial membrane inside the microtiter plate wells. The aphids were then allowed to suck on the treated aphid diet and incubated at about 23±1° C. and about 50±5% relative humidity for 3 days. Aphid mortality and fecundity was then visually assessed.

[6] = Anthonomus grandis, 90 ppm, comparative experiment C.7
[7] = Anthonomus grandis, 90 ppm, comparative experiment C.5
[8] = comparative experiment C.5, read-out: B.6, 2500 ppm (mortality)
[9] = 72 h, aphid mortality after 3 days, read-out: mortality in comparison with untreated controls
[10] = Anthonomus grandis, 90 ppm, comparative experiment C.8
[11] = comparative experiment C.8, read-out: B.6, 2500 ppm (mortality)

SMILES	mortality at 2500 ppm [1] [%]	mortality at 2500 ppm ([2]; Anthonomus grandis) [%]	mortality at 2500 ppm [4] [%]	mortality at 2500 ppm [5, 9] [%]	further results
CC(C)Sc1cnn(-c2nccnc2C(C)NC(=O)c2cc(C(F)(F)F)cc(C(F)(F)F)c2)c1 (stereo not drawn) [I-48, N-[1-[3-(4-isopropylsulfanylpyrazol-1-yl)pyrazin-2-yl]ethyl]-3,5-bis(trifluoromethyl)benzamide]	≥ 75	≥ 75	–	–	mortality at 90 ppm ([1]; comparative experiment C.7): 100%; mortality at 90 ppm [2, 6]: 100%; mortality at 300 ppm [3]: ≥ 75%
CC(NC(=O)c1cc(C(F)(F)F)cc(C(F)(F)F)c1)c1nccnc1-n1cc(S(C)(=O)=O)cn1 (stereo not drawn) [I-17, N-[1-[3-(4-methylsulfonylpyrazol-1-yl)pyrazin-2-yl]ethyl]-3,5-bis(trifluoromethyl)benzamide]	≥ 75	≥ 75	≥ 75	≥ 75	mortality at 90 ppm [2, 7]: 100%; mortality at 300 ppm [3]: ≥ 75%; mortality at 80 ppm [4]: 100%; mortality at 2500 ppm [5, 8]: 100%
CC(NC(=O)c1cc(C(F)(F)F)cc(C(F)(F)F)c1)c1nccnc1-n1cc([S+]([O-])C(C)C)cn1 (stereo not drawn) [I-69, N-[1-[3-(4-isopropylsulfinylpyrazol-1-yl)pyrazin-2-yl]ethyl]-3,5-bis(trifluoromethyl)benzamide]	≥ 75	≥ 75	≥ 75	≥ 75	–
CC(NC(=O)c1cc(C(F)(F)F)cc(C(F)(F)F)c1)c1nccnc1-n1cc(SC(F)(F)F)cn1 (stereo not drawn) [I-60, 3,5-bis(trifluoromethyl)-N-[1-[3-[4-(trifluoromethyl-sulfanyl)pyrazol-1-yl]pyrazin-2-yl]ethyl]benzamide]	≥ 75	≥ 75	≥ 75	–	mortality at 300 ppm [3]: ≥ 75%
CC(NC(=O)c1cc(Cl)cc(S(C)(=O)=O)c1)c1nccnc1-n1nccn1 (stereo not drawn) [WO2021/259997 I-1, reference compound]	–	–	–	–	mortality at 274 ppm [1]: 0%; mortality at 9.9 ppm ([2]; Anthonomus grandis): 0%
CC(NC(=O)c1cc(C(F)(F)F)cc(C(F)(F)F)c1)c1nccnc1-n1cc(Cl)cn1 (stereo not drawn) [WO2021/069575 I-96, reference compound]	–	–	–	–	mortality at 90 ppm [2, 7]: 50%; mortality at 80 ppm [4]: 0%; mortality at 2500 ppm [5, 8]: 0%
CC[S+]([O-])c1cnn(-c2nccnc2C(C)NC(=O)c2cc(C(F)(F)F)cc(C(F)(F)F)c2)c1 (stereo not drawn) [I-58]	≥ 75	≥ 75	≥ 75	≥ 75	mortality at 90 ppm ([1]; comparative experiment C.7): 100%; mortality at 90 ppm [2, 6]: 100%
CC(NC(=O)c1cc(C(F)(F)F)cc(C(F)(F)F)c1)c1nccnc1-c1cn(-c2ccn(C)n2)nn1 (stereo not drawn) [WO2021/259997 I-12, reference compound]	–	–	–	–	mortality at 90 ppm [2, 10]: 0%; mortality at 2500 ppm [5, 11]: 0%
CC(NC(=O)c1cc(C(F)(F)F)cc(C(F)(F)F)c1)c1nccnc1-n1cc(S(=O)(=O)C(F)(F)F)cn1 (stereo not drawn) [I-55, 3,5-bis(trifluoromethyl)-N-[1-[3-[4-(trifluoromethylsulfonyl)pyrazol-1-yl]pyrazin-2-yl]ethyl]benzamide]	≥ 75	≥ 75	≥ 75	–	mortality at 100 ppm [1]: 100%; mortality at 90 ppm ([2]; Anthonomus grandis, 90 ppm, comparative experiment C.6): 100%
CC(NC(=O)c1cc(C(F)(F)F)cc(C(F)(F)F)c1)c1nccnc1-n1cc(S(=O)(=O)C2CC2)cn1 (stereo not drawn) [I-65, N-[1-[3-(4-cyclopropylsulfonylpyrazol-1-yl)pyrazin-2-yl]ethyl]-3,5-bis(trifluoromethyl)benzamide]	≥ 75	≥ 75	≥ 75	≥ 75	–
CC(NC(=O)c1cc(Cl)cc(S(C)(=O)=O)c1)c1nccnc1-n1ncc(-c2ccccn2)n1 (stereo not drawn) [I-73]	≥ 75	≥ 75	≥ 75	≥ 75	mortality at 274 ppm [1]: 100%; mortality at 9.9 ppm ([2]; Anthonomus grandis): 100%
CC(NC(=O)c1cc(C(F)(F)F)cc(C(F)(F)F)c1)c1nccnc1-n1cc(S(=O)(=O)C(C)C)cn1 (stereo not drawn) [I-67, N-[1-[3-(4-isopropylsulfonylpyrazol-1-yl)pyrazin-2-yl]ethyl]-3,5-bis(tri-fluoromethyl)benzamide]	≥ 75	≥ 75	≥ 75	≥ 75	–
Cc1cn(-c2nccnc2C(C)NC(=O)c2cc(C(F)(F)F)cc(C(F)(F)F)c2)nn1 (stereo not drawn) [WO2021/037614 P41, reference compound]	–	–	–	–	mortality at 30 ppm ([2]; Anthonomus grandis, 30 ppm, comparative experiment C.3): 0%; mortality at 90 ppm ([5]; 90 ppm, comparative experiment C.3): 0%
CC(NC(=O)c1cc(C(F)(F)F)cc(C(F)(F)F)c1)c1nccc(Cl)c1-n1cc([S+](C)[O-])cn1 (stereo not drawn) [I-28, N-[1-[4-chloro-3-(4-methylsulfinylpyrazol-1-yl)-2-pyridyl]ethyl]-3,5-bis(trifluoromethyl)benzamide]	–	≥ 75	–	≥ 75	mortality at 300 ppm [3]: ≥ 75%
Cc1cnn(-c2nccnc2C(C)NC(=O)c2cc(C(F)(F)F)cc(C(F)(F)F)c2)n1 (stereo not drawn) [WO2021/037614 P1, reference compound]	–	–	–	–	mortality at 90 ppm ([1]; comparative experiment C.1): 25%; mortality at 30 ppm ([5]; comparative experiment C.1): 25%
CSc1cnn(-c2c(Cl)ccnc2C(C)NC(=O)c2cc(C(F)(F)F)cc(C(F)(F)F)c2)c1 (stereo not drawn) [I-26, N-[1-[4-chloro-3-(4-methylsulfanylpyrazol-1-yl)-2-pyridyl]ethyl]-3,5-bis(trifluoromethyl)benzamide]	≥ 75	≥ 75	≥ 75	–	mortality at 300 ppm [3]: ≥ 75%
CC(NC(=O)c1cc(C(F)(F)F)cc(C(F)(F)F)c1)c1nccc(F)c1-n1cc(S(C)(=O)=O)cn1 (stereo not drawn) [I-53, N-[1-[4-fluoro-3-(4-methylsulfonylpyrazol-1-yl)-2-pyridyl]ethyl]-3,5-bis(trifluoromethyl)benzamide]	≥ 75	≥ 75	≥ 75	–	–
CC(NC(=O)c1cc(C(F)(F)F)cc(C(F)(F)F)c1)c1nccnc1-n1ncc(-c2ccn(C)n2)n1 (stereo not drawn) [I-29, N-[1-[3-[4-(1-methylpyrazol-3-yl)triazol-2-yl]pyrazin-2-yl]ethyl]-3,5-bis(trifluoromethyl)benzamide]	≥ 75	≥ 75	≥ 75	≥ 75	mortality at 90 ppm [2, 10]: 100%; mortality at 2500 ppm [5, 11]: 100%
CC(NC(=O)c1cc(C(F)(F)F)cc(C(F)(F)F)c1)c1nccnc1-n1cc(C(F)(F)F)cn1 (stereo not drawn) [WO2021/069575 I-92, reference compound]	–	–	–	–	mortality at 100 ppm [1]: 50%; B.2, 90 ppm (mortality) ([2]; 90 ppm, comparative experiment C.6): 0%; mortality at 90 ppm ([2]; Anthonomus grandis, 90 ppm, comparative experiment C.4): 0%; mortality at 90 ppm ([4]; 90 ppm, comparative experiment C.4, read-out: B.5, 90 ppm (mortality)): 0%; mortality at 30 ppm ([5]; comparative experiment C.4): 0%

Reference: patent US20260206754A1, “HETEROARYL COMPOUNDS FOR THE CONTROL OF INVERTEBRATE PESTS” (priority 2022, published 2026)
